Paper PMC5845004, “Novel (p)ppGpp Binding and Metabolizing Proteins of Escherichia coli” (mBio, 2018)
“And” between values parts separate entries of the source, which are not always exact repeats. Equal values may be shown once. “Also recorded” adds a separate entry of the source. Read-outs that look alike come from different tables or passages of the source.

Assays:
Gpt = Gpt (Escherichia coli, UniProt P0A9M5); experiment: DRaCALA Kd determination, purified Gpt; format: binding, E. coli; settings: 2 nM 32P-labeled ligand, read-out: apparent Kd, Gpt
Description: (§2) For Kd measurements by DRaCALA, 2-fold serial dilutions from the highest possible concentrations of each purified protein were prepared in binding buffer B, and approximately 2 nM concentrations of α-^32P-labeled ppGpp, pppGpp, GTP, and GDP were added. The mixtures were incubated for 5 min at RT before spotting of 2 µl of the reaction mixtures onto nitrocellulose membranes. The fractions of bound ligand and the apparent Kd values were calculated as previously described ([37]).

YgdH = YgdH (Escherichia coli, UniProt P0ADR8); experiment: DRaCALA binding and Kd determination, purified YgdH; set-up: species or system E. coli; settings: DRaCALA
Description: (§3) For Kd measurements by DRaCALA, 2-fold serial dilutions from the highest possible concentrations of each purified protein were prepared in binding buffer B, and approximately 2 nM concentrations of α-^32P-labeled ppGpp, pppGpp, GTP, and GDP were added. The mixtures were incubated for 5 min at RT before spotting of 2 µl of the reaction mixtures onto nitrocellulose membranes. […] For competition assays, purified proteins at the specified concentrations were incubated with 2 nM [α-^32P]ppGpp or [α-^32P]pppGpp in the presence of 100 μM competitor nucleotides in binding buffer B. The reaction mixtures were incubated for 5 min at RT, 2 µl was spotted onto nitrocellulose membranes, and the values corresponding to the bound fractions were determined. EDTA was added at excess concentrations as specified for each case.

Der = Der (Escherichia coli, UniProt P0A6P5); experiment: DRaCALA Kd determination, purified Der; format: binding, E. coli; settings: 2 nM 32P-labeled ligand, read-out: apparent Kd, Der
Description: as §3

[1] = target: DerG1 (residues 2 to 184) (Escherichia coli, UniProt P0A6P5); experiment: DRaCALA Kd determination, Der G1 domain; format: binding, E. coli; settings: 2 nM 32P-labeled ligand, read-out: apparent Kd, DerG1
Description: For Kd measurements by DRaCALA, 2-fold serial dilutions from the highest possible concentrations of each purified protein were prepared in binding buffer B, and approximately 2 nM concentrations of α-^32P-labeled ppGpp, pppGpp, GTP, and GDP were added. The mixtures were incubated for 5 min at RT before spotting of 2 µl of the reaction mixtures onto nitrocellulose membranes. The fractions of bound ligand and the apparent Kd values were calculated as previously described ([37]). For competition assays, purified proteins at the specified concentrations were incubated with 2 nM [α-^32P]ppGpp or [α-^32P]pppGpp in the presence of 100 μM competitor nucleotides in binding buffer B. The reaction mixtures were incubated for 5 min at RT, 2 µl was spotted onto nitrocellulose membranes, and the values corresponding to the bound fractions were determined. EDTA was added at excess concentrations as specified for each case.

HypB = HypB (Escherichia coli, UniProt P0AAN3); experiment: DRaCALA Kd determination, purified HypB; format: binding, E. coli; settings: 2 nM 32P-labeled ligand, read-out: apparent Kd, HypB
Description: as §3

TrmE = TrmE (Escherichia coli, UniProt P25522); experiment: DRaCALA Kd determination, purified TrmE; format: binding, E. coli; settings: in the presence of magnesium, read-out: apparent Kd, TrmE
Description: as §3

Era = Era (Escherichia coli, UniProt P06616); experiment: DRaCALA Kd determination, purified Era; format: binding, E. coli; settings: 2 nM 32P-labeled ligand, read-out: apparent Kd, Era (converted)
Description: as §2

NudG = target: T1, NudG (Escherichia coli, UniProt P77788); experiment: DRaCALA competition assay, lysate with overproduced NudG; format: binding, E. coli; settings: whole-cell lysate, 2 nM hot (p)ppGpp, 100 µM cold competitor
T1 construct: expressed in transfected cells; host or cells: E. coli ASKA collection strain, IPTG-induced, whole-cell lysate
Description: (§1) Bacterial cells were collected and frozen at −80°C.

UshA = target: T2, UshA (Escherichia coli, UniProt P07024); experiment: DRaCALA competition assay, lysate with overexpressed UshA; format: binding; settings: cell lysate, 2 nM hot (p)ppGpp, 100 µM cold competitor
T2 sequence (P07024 26-550): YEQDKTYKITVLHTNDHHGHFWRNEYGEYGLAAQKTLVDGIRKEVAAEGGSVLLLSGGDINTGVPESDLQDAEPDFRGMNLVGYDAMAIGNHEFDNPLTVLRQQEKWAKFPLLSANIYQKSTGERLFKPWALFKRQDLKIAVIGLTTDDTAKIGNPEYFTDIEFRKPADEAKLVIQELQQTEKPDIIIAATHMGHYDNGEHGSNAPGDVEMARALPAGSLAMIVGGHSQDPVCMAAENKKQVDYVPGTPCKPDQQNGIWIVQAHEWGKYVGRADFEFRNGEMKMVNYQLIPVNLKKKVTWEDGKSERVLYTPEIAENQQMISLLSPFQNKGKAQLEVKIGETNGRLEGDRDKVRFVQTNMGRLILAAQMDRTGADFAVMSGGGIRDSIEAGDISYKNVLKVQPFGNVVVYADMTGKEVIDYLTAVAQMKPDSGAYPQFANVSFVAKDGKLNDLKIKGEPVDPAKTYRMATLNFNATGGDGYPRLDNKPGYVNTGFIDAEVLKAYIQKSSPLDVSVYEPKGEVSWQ
Description: as §1

MutT = MutT (Escherichia coli, UniProt P08337); experiment: In vitro cleavage assay (TLC), MutT; format: biochemical, E. coli; settings: for cleavage by MutT: purified MutT, buffer B with 10 mM MgCl2, TLC
Description: The purified His6-MutT and His6-NudG proteins were tested for their relative levels of cleavage of ppGpp compared to those seen with their native substrates. For this, a 1 μM concentration of each protein and a 10 nM concentration of [α-^32P]ppGpp were used together with 100 μM concentrations of cold competitors [ppGpp, GTP, ATP, 8-oxo-(d)GTP, 2-hydroxyl-(d)ATP] or 50 mM EDTA in buffer B. The samples were incubated at 30°C for 10 min and for 1 h before the reactions were stopped by adding 50 mM EDTA. The cleavage products were resolved by TLC as described above. The purified His6-NadR and His6-TrmE proteins were tested for their cleavage of both GTP and ppGpp. For cleavage of GTP, 10 μM concentrations of His6-MBP, His6-TrmE, and 20 μM His6-NadR proteins were used with 2 nM [α-^32P]GTP and 100 μM cold GTP in buffer B. For cleavage of ppGpp, 10 μM concentrations of His6-TrmE, His6-MBP, and His6-NadR proteins were used with 10 nM [α-^32P]ppGpp in buffer B. Of note, for His6-TrmE, another reaction was also performed in buffer B supplemented with 100 mM KCl. The reactions were performed at RT for 10 min and were stopped by adding 17% formic acid. The cleavage products were resolved by TLC as described above.
A 20 μM concentration of each of purified proteins MutT, NudG, NadR, TrmE, and MBP (as a negative control) was incubated with 100 μM ppGpp in buffer B (containing 40 mM Tris [pH 7.5], 100 mM NaCl, and 10 mM MgCl2) for 20 min at room temperature. Samples were snap-frozen on dry ice and analyzed with UPLC-MS afterward. All samples and buffers were stored at −80°C, thawed on ice, and kept at 4°C during analysis. For the analysis, a UPLC-quadrupole time of flight (UPLC-qTOF) method (Waters) was used. Analysis conditions were as follows: column, zic-HILIC (Merck Millipore) (150 by 2.1 mm, […], gradient elution, flow rate set to 0.3 ml/min); mobile phase A, 10 mM ammonium acetate (pH 5); mobile phase B, 90% acetonitrile with 10 mM ammonium acetate (pH 5). The gradient was set up as follows: min 0 to 2, 80% B; min 2 to 16, 80% B to 50% B; hold until min 20; injection volume, 4 µl. The detection conditions were as follows: photodiode array detector (PDA), […] (evaluated at 260 nm); MS, ionization; electrospray ionization (ESI+), scan, 200 to 800 m/z with lock mass correction. Analytes were identified by their accurate mass and retention time data for a known standard dissolved in used buffer (for the chemicals of the same nominal masses). These standards were either synthesized and their structures confirmed by nuclear magnetic resonance (NMR) (for ppGp, pGpp, and pGp) or purchased (ppGpp was purchased from Jena Biocsience and GTP from Sigma-Aldrich).

Gmk = target: Gmk; set-up: method as in Table S1 (4); settings: ref Table S1 (4); read-out: Kd, S. aureus Gmk; cited from earlier work
RsgA = target: RsgA; set-up: method as in Table S1 (4); settings: ref Table S1 (4); read-out: Kd, S. aureus RsgA (converted); cited from earlier work
[2] = in the presence of EDTA (without Mg2+), read-out: Kd, YgdH + EDTA (converted)
[3] = with 1.5 mM Mg2+, read-out: apparent Kd, YgdH + 1.5 mM Mg2+

Sequence of Der (P0A6P5 whole entry, the tested form may be a part): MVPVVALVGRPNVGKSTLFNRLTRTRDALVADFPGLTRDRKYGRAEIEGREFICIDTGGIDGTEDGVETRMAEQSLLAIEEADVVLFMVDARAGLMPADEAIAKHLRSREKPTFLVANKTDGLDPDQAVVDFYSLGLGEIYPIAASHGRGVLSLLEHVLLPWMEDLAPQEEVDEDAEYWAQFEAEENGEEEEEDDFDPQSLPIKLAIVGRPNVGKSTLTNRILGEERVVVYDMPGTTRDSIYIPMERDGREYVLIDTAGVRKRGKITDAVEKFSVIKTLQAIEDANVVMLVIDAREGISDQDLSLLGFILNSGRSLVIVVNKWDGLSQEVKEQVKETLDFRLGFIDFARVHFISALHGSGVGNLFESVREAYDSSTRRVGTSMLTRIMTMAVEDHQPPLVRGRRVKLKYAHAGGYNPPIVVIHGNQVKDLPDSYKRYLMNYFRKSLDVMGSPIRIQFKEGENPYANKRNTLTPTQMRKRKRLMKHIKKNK
Sequence of MutT (P08337 whole entry): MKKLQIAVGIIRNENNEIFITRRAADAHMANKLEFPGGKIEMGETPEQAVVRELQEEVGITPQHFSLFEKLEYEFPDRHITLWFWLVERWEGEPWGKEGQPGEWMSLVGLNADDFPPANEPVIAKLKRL
Sequence of YgdH (P0ADR8 whole entry): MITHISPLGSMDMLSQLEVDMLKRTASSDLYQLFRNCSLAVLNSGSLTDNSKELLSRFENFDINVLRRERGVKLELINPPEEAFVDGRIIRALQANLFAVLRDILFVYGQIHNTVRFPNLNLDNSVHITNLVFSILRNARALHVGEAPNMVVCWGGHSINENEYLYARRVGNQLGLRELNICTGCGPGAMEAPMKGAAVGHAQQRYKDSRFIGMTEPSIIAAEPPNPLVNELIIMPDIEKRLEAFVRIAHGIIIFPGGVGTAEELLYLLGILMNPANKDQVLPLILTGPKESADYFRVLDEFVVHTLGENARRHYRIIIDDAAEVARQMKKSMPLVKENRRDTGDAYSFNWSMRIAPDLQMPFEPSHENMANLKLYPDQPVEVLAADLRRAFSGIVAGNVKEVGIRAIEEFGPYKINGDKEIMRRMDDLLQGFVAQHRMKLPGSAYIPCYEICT
Sequence of TrmE (P25522 whole entry): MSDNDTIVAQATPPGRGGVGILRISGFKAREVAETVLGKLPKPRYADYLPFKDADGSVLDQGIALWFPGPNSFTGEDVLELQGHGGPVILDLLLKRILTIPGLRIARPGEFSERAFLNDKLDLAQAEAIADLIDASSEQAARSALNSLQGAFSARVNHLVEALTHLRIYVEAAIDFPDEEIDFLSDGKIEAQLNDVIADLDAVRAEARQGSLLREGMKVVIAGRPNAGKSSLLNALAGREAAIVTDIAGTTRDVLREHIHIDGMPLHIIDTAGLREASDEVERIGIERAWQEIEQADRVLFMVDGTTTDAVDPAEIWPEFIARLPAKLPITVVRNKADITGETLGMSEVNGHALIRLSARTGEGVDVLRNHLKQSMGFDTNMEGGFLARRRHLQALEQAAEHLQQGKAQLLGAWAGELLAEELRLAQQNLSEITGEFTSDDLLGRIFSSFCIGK
Sequence of Era (P06616 whole entry): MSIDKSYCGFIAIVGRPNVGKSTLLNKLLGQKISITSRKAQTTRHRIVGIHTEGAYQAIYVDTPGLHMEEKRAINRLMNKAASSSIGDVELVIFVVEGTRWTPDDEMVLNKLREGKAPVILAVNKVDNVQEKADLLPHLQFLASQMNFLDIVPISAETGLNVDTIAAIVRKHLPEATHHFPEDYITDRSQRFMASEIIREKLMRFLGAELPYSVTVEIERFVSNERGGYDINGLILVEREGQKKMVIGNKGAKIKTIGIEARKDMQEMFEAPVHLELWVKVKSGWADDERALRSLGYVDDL
Sequence of HypB (P0AAN3 whole entry): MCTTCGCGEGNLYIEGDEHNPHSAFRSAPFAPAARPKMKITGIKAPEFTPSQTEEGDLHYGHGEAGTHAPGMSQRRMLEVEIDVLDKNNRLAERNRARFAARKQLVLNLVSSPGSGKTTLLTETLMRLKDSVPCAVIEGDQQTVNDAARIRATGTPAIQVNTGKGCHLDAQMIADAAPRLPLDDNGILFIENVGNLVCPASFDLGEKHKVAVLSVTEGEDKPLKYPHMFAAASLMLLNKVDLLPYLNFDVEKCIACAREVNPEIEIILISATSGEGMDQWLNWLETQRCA
T1 sequence (P77788 whole entry): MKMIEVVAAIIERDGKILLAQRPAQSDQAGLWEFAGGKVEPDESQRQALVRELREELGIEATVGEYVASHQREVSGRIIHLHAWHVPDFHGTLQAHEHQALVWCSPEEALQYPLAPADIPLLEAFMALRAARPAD
Sequence of DerG1 (residues 2 to 184) (P0A6P5 2-184): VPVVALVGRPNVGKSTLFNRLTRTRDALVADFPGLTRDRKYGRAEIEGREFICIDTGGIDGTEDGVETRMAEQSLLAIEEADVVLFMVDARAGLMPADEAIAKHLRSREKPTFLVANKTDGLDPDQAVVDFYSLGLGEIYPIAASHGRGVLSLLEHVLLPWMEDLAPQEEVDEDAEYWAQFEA
Sequence of Gpt (P0A9M5 whole entry): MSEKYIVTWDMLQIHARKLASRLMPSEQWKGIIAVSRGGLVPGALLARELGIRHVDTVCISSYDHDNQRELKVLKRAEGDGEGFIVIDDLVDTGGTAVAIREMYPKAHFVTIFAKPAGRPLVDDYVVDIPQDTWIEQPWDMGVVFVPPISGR

| Compound | Kd (Gpt) [µM] | Kd (YgdH; [2]) | Kd (YgdH; [3]) [µM] | Kd (Der) | Kd [1] [µM] | Kd (HypB) [µM] | Kd (TrmE) [µM] | Kd (Era) [µM] | competition for NudG-bound (p)ppGpp (NudG) | competition for UshA-bound (p)ppGpp (UshA) | cleavage by MutT (MutT) | Kd (Gmk) [µM] | Kd (RsgA) [µM] | inhibition of [α-32P]ppGpp cleavage by MutT (MutT; 1 µM MutT, 10 nM hot ppGpp, 100 µM competitor, 30°C, up to 1 h) |
| --- | --- | --- | --- | --- | --- | --- | --- | --- | --- | --- | --- | --- | --- | --- |
| Nc1nc2c(ncn2[C@@H]2O[C@H](COP(=O)(O)OP(=O)(O)OP(=O)(O)O)[C@@H](OP(=O)(O)OP(=O)(O)O)[C@H]2O)c(=O)[nH]1 [pppGpp, guanosine pentaphosphate] | 6.7 ± 0.9 | 1.6 µM and 1.59 µM | 37.2 ± 6.5 | 6.9 ± 2.9 µM | 4.7 ± 2.3 | 14.8 ± 5.1 | 2.2 ± 0.9 | 21.4 | could outcompete the bound, radiolabeled (p)ppGpp | could outcompete the bound, radiolabeled (p)ppGpp | degraded into smaller products | 4.01 | 10.3 |  |
| Nc1nc2c(ncn2[C@@H]2O[C@H](COP(=O)(O)OP(=O)(O)O)[C@@H](OP(=O)(O)OP(=O)(O)O)[C@H]2O)c(=O)[nH]1 [ppGpp, guanosine tetraphosphate] | 5.2 ± 0.9 | 4 ± 0.5 µM | 24.4 ± 4.7 | 1.8 µM and 1.77 µM | 5.9 ± 2.5 | 12.4 ± 3 | 1.7 ± 0.5 | 4.3 ± 0.6 | could outcompete the bound, radiolabeled (p)ppGpp | could outcompete the bound, radiolabeled (p)ppGpp | degraded into smaller products; also recorded: cleaved most ppGpp | 6.02 | 1.69 ± 0.13 | very limited inhibitory effects |
